Data from paper PMC5740381 (Antimicrobial Agents and Chemotherapy, 2017).
Like-named read-outs stand apart in the source and are kept apart here.

Tests used:
[1] = molecular target: T1, GT1a H77 / 1a Wild type (Hepatitis C virus (isolate H77), UniProt P27958); assay: cell-based; parameters: species or system Huh-7; conditions: SD, n = 3; read-out: HCV stable replicons in 0% human plasma, Mean EC50 ± SD
T1 construct: in subgenomic replicon
Excerpt: (§1) Five of these nine cell lines have been described previously, including those transfected with genotypes 1a H77, 1b Con1, 3a, 4a, and 6a ([28]). […] The genotype 2b and 6e NS3 sequences were each synthetically constructed based on a consensus sequence derived from the alignment of 15 genotype 2b and 4 genotype 6e sequences, respectively. All replicon constructs were bicistronic subgenomic replicons similar to those described by Bartenschlager and coworkers, and the replicon cell lines were generated by introducing these constructs into cells of an Huh-7 human hepatoma-derived cell line ([50]). The inhibitory effect of the PIs on HCV replication in replicon cells was determined in Dulbecco's modified Eagle medium containing 5% fetal bovine serum with or without 40% human plasma (Bioreclamation, Westbury, NY). The EC50s were determined using nonlinear regression curve fitting as described previously ([33]).

[2] = molecular target: T2, GT1b Con1 / 1b Wild type (Hepatitis C virus (isolate Con1), UniProt Q9WMX2); assay: cell-based; parameters: species or system Huh-7; conditions: SD, n = 3; read-out: HCV stable replicons in 0% human plasma, Mean EC50 ± SD
T2 construct: in subgenomic replicon
Excerpt: as §1

[3] = molecular target: T1, GT1a H77 / 1a Wild type; assay: cell-based; parameters: species or system Huh-7; conditions: SD, n = 3
Experimental: (§2) Mutagenesis was performed using a Change-IT multiple-mutation site-directed mutagenesis kit (USB, Cleveland, OH) or by cloning a synthesized DNA fragment encoding the amino acid substitution(s). The genotype 1a and 1b replicon shuttle vectors used for the introduction of the substitutions of interest in the NS3, NS5A, or NS5B gene for transient-transfection assays have been described previously ([28], [33]). The replicon shuttle vectors used for the introduction of substitutions in NS3 genes from other genotypes were similar to the stable replicon cell line constructs described above, except for the absence of the neo gene. After mutagenesis, the plasmids were linearized and RNA was transcribed and then used to transfect Huh-7 cells. Inhibition of HCV replication by the HCV inhibitors was measured by luciferase assay, as described above. Replication efficiency was calculated as a percentage of wild-type replication, as described previously ([28]).

[4] = molecular target: T2, GT1b Con1 / 1b Wild type; assay: cell-based; parameters: species or system Huh-7; conditions: SD, n = 3
Experimental: as §2

[5] = molecular target: T3, 1a A156T (Hepatitis C virus (isolate H77), UniProt P27958, A1182T); assay: Luciferase assay of HCV replication in transient-transfection replicons with wild-type or substituted NS3 (at least 3 transfections).; assay type: cell-based, Huh-7; conditions: SD, n = 3
T3 construct: in transient replicon
Experimental: as §2

[6] = molecular target: T4, 1a D168A (Hepatitis C virus (isolate H77), UniProt P27958, D1194A); assay: as above; assay type: cell-based, Huh-7; conditions: SD, n = 3
T4 construct: in transient replicon
Experimental: as §2

[7] = molecular target: T5, 1a D168E (Hepatitis C virus (isolate H77), UniProt P27958, D1194E); assay: as above; assay type: cell-based, Huh-7; conditions: SD, n = 3
T5 construct: in transient replicon
Experimental: as §2

[8] = molecular target: T6, 1a D168V (Hepatitis C virus (isolate H77), UniProt P27958, D1194V); assay: as above; assay type: cell-based, Huh-7; conditions: SD, n = 3
T6 construct: in transient replicon
Experimental: as §2

[9] = molecular target: T7, 1a F43L (Hepatitis C virus (isolate H77), UniProt P27958, F1069L); assay: as above; assay type: cell-based, Huh-7; conditions: SD, n = 3
T7 construct: in transient replicon
Experimental: as §2

[10] = molecular target: T8, 1a Q80K (Hepatitis C virus (isolate H77), UniProt P27958, Q1106K); assay: as above; assay type: cell-based, Huh-7; conditions: SD, n = 3
T8 construct: in transient replicon
Experimental: as §2

[11] = molecular target: T9, 1a R155K (Hepatitis C virus (isolate H77), UniProt P27958, R1181K); assay: as above; assay type: cell-based, Huh-7; conditions: SD, n = 3
T9 construct: in transient replicon
Experimental: as §2

[12] = molecular target: T10, 1a T54S (Hepatitis C virus (isolate H77), UniProt P27958, T1080S); assay: as above; assay type: cell-based, Huh-7; conditions: SD, n = 3
T10 construct: in transient replicon
Experimental: as §2

[13] = molecular target: T11, 1a V36M (Hepatitis C virus (isolate H77), UniProt P27958, V1062M); assay: as above; assay type: cell-based, Huh-7; conditions: SD, n = 3
T11 construct: in transient replicon
Experimental: as §2

[14] = molecular target: T12, 1a V55I (Hepatitis C virus (isolate H77), UniProt P27958, V1081I); assay: as above; assay type: cell-based, Huh-7; conditions: SD, n = 3
T12 construct: in transient replicon
Experimental: as §2

[15] = molecular target: T13, 1a Y56H (Hepatitis C virus (isolate H77), UniProt P27958, Y1082H); assay: as above; assay type: cell-based, Huh-7; conditions: SD, n = 3
T13 construct: in transient replicon
Experimental: as §2

[16] = molecular target: T14, 1b A156T (Hepatitis C virus (isolate Con1), UniProt Q9WMX2, A1182T); assay: as above; assay type: cell-based, Huh-7; conditions: SD, n = 3
T14 construct: in transient replicon
Experimental: as §2

[17] = molecular target: T15, 1b A156V (Hepatitis C virus (isolate Con1), UniProt Q9WMX2, A1182V); assay: as above; assay type: cell-based, Huh-7; conditions: SD, n = 3
T15 construct: in transient replicon
Experimental: as §2

[18] = molecular target: T16, 1b D168A (Hepatitis C virus (isolate Con1), UniProt Q9WMX2, D1194A); assay: as above; assay type: cell-based, Huh-7; conditions: SD, n = 3
T16 construct: in transient replicon
Experimental: as §2

[19] = molecular target: T17, 1b D168E (Hepatitis C virus (isolate Con1), UniProt Q9WMX2, D1194E); assay: as above; assay type: cell-based, Huh-7; conditions: SD, n = 3
T17 construct: in transient replicon
Experimental: as §2

[20] = molecular target: T18, 1b D168V (Hepatitis C virus (isolate Con1), UniProt Q9WMX2, D1194V); assay: as above; assay type: cell-based, Huh-7; conditions: SD, n = 3
T18 construct: in transient replicon
Experimental: as §2

[21] = molecular target: T19, 1b R155K (Hepatitis C virus (isolate Con1), UniProt Q9WMX2, R1181K); assay: as above; assay type: cell-based, Huh-7; conditions: SD, n = 3
T19 construct: in transient replicon
Experimental: as §2

[22] = molecular target: T20, 1b T54A (Hepatitis C virus (isolate Con1), UniProt Q9WMX2, T1080A); assay: as above; assay type: cell-based, Huh-7; conditions: SD, n = 3
T20 construct: in transient replicon
Experimental: as §2

[23] = molecular target: T21, 1b V170A (Hepatitis C virus (isolate Con1), UniProt Q9WMX2, V1196A); assay: as above; assay type: cell-based, Huh-7; conditions: SD, n = 3
T21 construct: in transient replicon
Experimental: as §2

[24] = molecular target: T22, 1b V55A (Hepatitis C virus (isolate Con1), UniProt Q9WMX2, V1081A); assay: as above; assay type: cell-based, Huh-7; conditions: SD, n = 3
T22 construct: in transient replicon
Experimental: as §2

[25] = molecular target: T23, 2a A156T (Hepatitis C virus JFH-1, UniProt Q99IB8, A1186T); assay: as above; assay type: cell-based, Huh-7; conditions: SD, n = 3
T23 construct: in transient replicon
Experimental: as §2

[26] = molecular target: T24, 2a A156V (Hepatitis C virus JFH-1, UniProt Q99IB8, A1186V); assay: as above; assay type: cell-based, Huh-7; conditions: SD, n = 3
T24 construct: in transient replicon
Experimental: as §2

[27] = molecular target: T25, 2a D168A (Hepatitis C virus JFH-1, UniProt Q99IB8, D1198A); assay: as above; assay type: cell-based, Huh-7; conditions: SD, n = 3
T25 construct: in transient replicon
Experimental: as §2

[28] = molecular target: T26, 2a D168E (Hepatitis C virus JFH-1, UniProt Q99IB8, D1198E); assay: as above; assay type: cell-based, Huh-7; conditions: SD, n = 3
T26 construct: in transient replicon
Experimental: as §2

[29] = molecular target: T27, 2a D168V (Hepatitis C virus JFH-1, UniProt Q99IB8, D1198V); assay: as above; assay type: cell-based, Huh-7; conditions: SD, n = 3
T27 construct: in transient replicon
Experimental: as §2

[30] = molecular target: T28, 5a D168E (Hepatitis C virus SA13, UniProt O91936, D1195E); assay: as above; assay type: cell-based, Huh-7; conditions: SD, n = 3
T28 construct: in genotype 2a JFH-1 chimeric transient replicon
Experimental: as §2

[31] = molecular target: T29, 5a D168H (Hepatitis C virus SA13, UniProt O91936, D1195H); assay: as above; assay type: cell-based, Huh-7; conditions: SD, n = 3
T29 construct: in genotype 2a JFH-1 chimeric transient replicon
Experimental: as §2

[32] = tested on: HCV genotype 1a replicon cells; assay: Drug-resistant colony selection in replicon cells; assay type: cell-based, Hepatitis C virus; conditions: 10× EC50, about 3 weeks
Excerpt: (§3) . After approximately 3 weeks of treatment, the surviving replicon colonies in one plate for each selection condition were stained with crystal violet and counted, whereas approximately 20 to 30 colonies in a replicate plate or most of the colonies, if less than 20 colonies survived the selection, were picked and further expanded for genotyping. The expanded colonies were lysed in CellsDirect lysis buffer (Invitrogen, MA), and the NS3-coding region from each colony was amplified by reverse transcription-PCR and sequenced. For genotype 1a, 1b, 2a, and 5a colonies, the full-length NS3 sequence was determined, whereas for colonies of the chimeric replicon containing the N-terminal region of NS3 from genotype 2b, 3a, 4a, or 6a, the sequence encoding the NS3 N-terminal region was determined. We defined a substitution in a replicon to be an amino acid difference in a sequence from a posttreatment sample relative to the sequence of the corresponding untreated sample. For resistance selection studies, NS3 substitutions detected at the following amino acid positions associated with resistance to the HCV PI class in >2 colonies in each replicon selection are reported: 36, 43, 54, 55, 56, 80, 122, 155, 156, and 168. In addition, substitutions detected at other amino acid positions in the NS3 protease domain in >2 colonies in each replicon selection are also reported.
(§4) […]. The drug-resistant colonies were fixed and stained with crystal violet, and the number of colonies was determined.

[33] = tested on: HCV genotype 1b replicon cells; assay: Drug-resistant colony selection in replicon cells; assay type: cell-based, Hepatitis C virus; conditions: 10× EC50, about 3 weeks
Excerpt: as §3, §4

[34] = tested on: genotype 1b Con1 replicon cells; conditions: genotype 1b replicon cells; cited from earlier work

Compound: Cc1cnc(C(=O)N[C@H]2CCCCC/C=C\[C@@H]3C[C@@]3(C(=O)NS(=O)(=O)C3CC3)NC(=O)[C@@H]3C[C@@H](Oc4nc5ccccc5c5ccccc45)CN3C2=O)cn1 [Paritaprevir, paritaprevir (ABT-450)]
- EC50 [1]: 1 ± 0.33 nM
- EC50 [2]: 0.21 ± 0.07 nM
- EC50 [3]: 1.4 ± 0.4 nM
- EC50 [4]: 0.11 ± 0.05 nM
- EC50 [5]: 24 ± 3 nM
- EC50 [6]: 70 ± 9 nM
- EC50 [7]: 20 ± 0.7 nM
- EC50 [8]: 135 ± 21 nM
- EC50 [9]: 27 ± 12 nM
- EC50 [10]: 3.9 ± 0.3 nM
- EC50 [11]: 51 ± 8 nM
- EC50 [12]: 0.54 ± 0.01 nM
- EC50 [13]: 3 ± 0.3 nM
- EC50 [14]: 1.4 ± 0.14 nM
- EC50 [15]: 4.1 ± 1.1 nM
- EC50 [16]: 0.81 ± 0.13 nM
- EC50 [17]: 2.3 ± 0.53 nM
- EC50 [18]: 3 ± 0.2 nM
- EC50 [19]: 0.48 ± 0.05 nM
- EC50 [20]: 17 ± 2 nM
- EC50 [21]: 4.4 ± 0.1 nM
- EC50 [22]: 0.09 ± 0.01 nM
- EC50 [23]: 0.09 ± 0.03 nM
- EC50 [24]: 0.07 ± 0.001 nM
- EC50 [25]: 29 ± 2.8 nM
- EC50 [26]: 37 ± 1.2 nM
- EC50 [27]: 306 ± 34 nM
- EC50 [28]: 89 ± 15 nM
- EC50 [29]: 228 ± 32 nM
- EC50 [30]: 7.7 ± 1.7 nM
- EC50 [31]: 184 ± 65 nM

Compound: COC(=O)N[C@H](C(=O)N1CCC[C@H]1c1nc2cc([C@H]3CC[C@H](c4cc5nc([C@@H]6CCCN6C(=O)[C@@H](NC(=O)OC)[C@@H](C)OC)[nH]c5cc4F)N3c3cc(F)c(N4CCC(c5ccc(F)cc5)CC4)c(F)c3)c(F)cc2[nH]1)[C@@H](C)OC [Pibrentasvir, reference compound]
- Colony survival [32]: 0.0065%
- Colony survival [33]: 0%
- Colony survival ([33]; listed as pibrentasvir): no genotype 1b replicon cells survived
- EC50 [34]: 0.0043 nM
